{"source": "patent US4311689A", "about": "“Method and container for production of diagnostic scanning” (priority 1978, dated 1982)", "test": "Bio-distribution in rats 2 hours post injection", "assay_type": "in vivo", "method": "The complex was injected into rats which were sacrificed 2 hours post injection.", "note": "Counter-ions that a name gives are not always drawn."}
{"smiles": "O=C[C@H](O)[C@@H](O)[C@H](O)[C@H](O)CO", "note": "[d-glucose]", "values": [{"measurement": "activity excreted in the urine (in words)", "value": "the bulk of the injected activity"}, {"measurement": "activity retained in the kidneys", "value": "~29", "unit": "%"}, {"measurement": "liver retention / uptake", "value": "about 5%"}]}
{"smiles": "O=C(O)CN(CCN(CC(=O)O)CC(=O)O)CCN(CC(=O)O)CC(=O)O", "values": [{"measurement": "activity excreted in the urine", "value": "greater than 95%"}]}
{"smiles": "Sc1cccc2cccnc12", "note": "[8-mercapto-quinolinehydrochloride]", "values": [{"measurement": "activity excreted in the urine (in words)", "value": "small amount"}, {"measurement": "blood labelling", "value": "small amount"}, {"measurement": "liver retention / uptake", "value": "about 37%"}, {"measurement": "muscle uptake", "value": "~15", "unit": "%"}, {"measurement": "small intestine uptake", "value": "~20", "unit": "%"}]}
{"smiles": "O=P(O)(O)CP(=O)(O)O", "note": "[methylenediphosphonic acid]", "values": [{"measurement": "activity excreted in the urine (in words)", "value": "most of the remainder"}, {"measurement": "bone uptake", "value": "about 37%"}]}
{"smiles": "O=C(O)CC(O)(CC(=O)O)C(=O)O", "note": "[citric acid]", "values": [{"measurement": "activity excreted in the urine", "value": "over 70%"}, {"measurement": "activity retained in the kidneys", "value": "about 11%"}, {"measurement": "concentration in any other organ", "value": "no significant concentration"}]}
